The text below walks through data of patent US8575156B2, “Cyclic inhibitors of 11β-hydroxysteroid dehydrogenase 1” (Vitae Pharmaceuticals, Inc., priority 2007, dated 2013).

The assay deals with 11β-HSD1 (Homo sapiens, UniProt P28845). Description: biochemical. To be noted: for IC50: IC50 Range, Biological Test Example 1, microsomes from CHO cells overexpressing human 11β-HSD1.
The mark [1] stands for this setting: read-out: Average % inhibition at 100 nM, Biological Test Example 1, 100 nM.

Where two headings read alike, the source gives them in different places. A value given as a limit tells only on which side of the number the result lay.

The term IC50 denotes the concentration needed to halve the response being measured. A word on the inhibition: it is how much of the control response was suppressed.

Chain of 11β-HSD1 (P28845 whole entry): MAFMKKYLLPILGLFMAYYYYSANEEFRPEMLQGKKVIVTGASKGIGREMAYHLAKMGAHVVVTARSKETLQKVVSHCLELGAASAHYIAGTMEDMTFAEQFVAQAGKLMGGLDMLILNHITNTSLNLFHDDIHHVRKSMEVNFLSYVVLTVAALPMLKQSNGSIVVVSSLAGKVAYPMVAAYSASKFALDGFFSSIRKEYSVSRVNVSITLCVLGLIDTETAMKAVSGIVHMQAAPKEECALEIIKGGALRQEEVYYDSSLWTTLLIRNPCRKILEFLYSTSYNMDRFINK

`O=C1OC(CCCO)(c2ccc(F)cc2)CCN1Cc1ccccc1Br` (stereo not drawn) [EXAMPLE 351, 3-(2-bromobenzyl)-6-(4-fluorophenyl)-6-(3-hydroxypropyl)-1,3-oxazinan-2-one] yielded an IC50 of less than 100 nM. Moreover, the inhibition at 0.1 µM under setting [1] was determined as 83.1%.

`COC(=O)c1ccccc1CN1CC[C@](CCCO)(c2ccc(F)cc2)OC1=O` [EXAMPLE 352, (R)-methyl 2-((6-(4-fluorophenyl)-6-(3-hydroxypropyl)-2-oxo-1,3-oxazinan-3-yl)methyl)benzoate] returned an IC50 of less than 100 nM. In addition, the inhibition at 0.1 µM under setting [1] came to 60.8%.

Regarding `C[C@@H](c1cccc(Br)c1)N1CC[C@](CCCO)(c2ccc(F)cc2)OC1=O` [EXAMPLE 354, (R)-3-((S)-1-(3-bromophenyl)ethyl)-6-(4-fluorophenyl)-6-(3-hydroxypropyl)-1,3-oxazinan-2-one], the IC50 was less than 100 nM. Further, the inhibition at 0.1 µM under setting [1] is 95.2%.

Take `CC(O)C[C@]1(c2ccc(F)cc2)CCN([C@@H](C)c2cccc(Br)c2)C(=O)O1` (stereo partly drawn) [EXAMPLE 355, (6S)-3-((S)-1-(3-bromophenyl)ethyl)-6-(4-fluorophenyl)-6-(2-hydroxypropyl)-1,3-oxazinan-2-one]: the IC50 is less than 100 nM. Also, for the setting “read-out: Average % inhibition at 100 nM”, the inhibition at 0.1 µM came out at 95.5%.

In turn, `C[C@@H](c1cccc(Br)c1)N1CC[C@](CC(C)(C)O)(c2ccc(F)cc2)OC1=O` [EXAMPLE 356, (S)-3-((S)-1-(3-bromophenyl)ethyl)-6-(4-fluorophenyl)-6-(2-hydroxy-2-methylpropyl)-1,3-oxazinan-2-one] registered an IC50 of less than 100 nM. In addition, the inhibition at 0.1 µM under setting [1] was 92%.

Regarding `C[C@@H](c1cccc(Br)c1)N1CC[C@](CCC(C)(C)O)(c2ccc(F)cc2)OC1=O` [EXAMPLE 357, (R)-3-((S)-1-(3-bromophenyl)ethyl)-6-(4-fluorophenyl)-6-(3-hydroxy-3-methylbutyl)-1,3-oxazinan-2-one], the IC50 was less than 100 nM. The inhibition at 0.1 µM under setting [1] amounted to 60.7%.

Consider `C[C@@H](c1cccc(Br)c1)N1CC[C@](CCC(N)=O)(c2ccc(F)cc2)OC1=O` [EXAMPLE 358, 3-((R)-3-((S)-1-(3-bromophenyl)ethyl)-6-(4-fluorophenyl)-2-oxo-1,3-oxazinan-6-yl)propanamide], for which the concentration for half-maximal inhibition (IC50) was less than 100 nM. The inhibition at 0.1 µM under setting [1] turned out to be 84%.

Compound `C[C@@H](c1cccc(Br)c1)N1CC[C@](CCCNS(C)(=O)=O)(c2ccc(F)cc2)OC1=O` [EXAMPLE 359, N-(3-((R)-3-((S)-1-(3-bromophenyl)ethyl)-6-(4-fluorophenyl)-2-oxo-1,3-oxazinan-6-yl)propyl)methanesulfonamide] returned an IC50 of less than 100 nM. Moreover, the inhibition at 0.1 µM under setting [1] is 67.5%.

As to `C[C@@H](c1cccc(Cl)c1)N1CC[C@](CCCO)(c2ccc(F)cc2)OC1=O` [EXAMPLE 360, (R)-3-((S)-1-(3-chlorophenyl)ethyl)-6-(4-fluorophenyl)-6-(3-hydroxypropyl)-1,3-oxazinan-2-one], the IC50 was less than 100 nM. Besides, the inhibition at 0.1 µM under setting [1] stood at 97%.

`C[C@@H](c1cccc(C#N)c1)N1CC[C@](CCCOC(=O)C(F)(F)F)(c2ccc(F)cc2)OC1=O` [EXAMPLE 361, 3-((R)-3-((S)-1-(3-cyanophenyl)ethyl)-6-(4-fluorophenyl)-2-oxo-1,3-oxazinan-6-yl)propyl 2,2,2-trifluoroacetate] returned an IC50 of less than 100 nM. In addition, the inhibition at 0.1 µM under setting [1] was found to be 67.4%.

`C=CC[C@]1(c2ccc(F)cc2)CCN([C@@H](C)c2cccc(C(=O)OC)c2)C(=O)O1` [EXAMPLE 362, Methyl 3-((S)-1-((R)-6-allyl-6-(4-fluorophenyl)-2-oxo-1,3-oxazinan-3-yl)ethyl)benzoate] showed an IC50 of less than 100 nM. Moreover, the inhibition at 0.1 µM under setting [1] stood at 93.4%.

In the case of `C[C@@H](c1cccc(CO)c1)N1CC[C@](CCCO)(c2ccc(F)cc2)OC1=O` [EXAMPLE 363, (R)-6-(4-fluorophenyl)-3-((S)-1-(3-(hydroxymethyl)phenyl)ethyl)-6-(3-hydroxypropyl)-1,3-oxazinan-2-one], the IC50 is less than 100 nM. For the same compound, the inhibition at 0.1 µM under setting [1] was found to be 74.5%.
